Assay results: US11300567B2, “Methods and compositions for protein purification and enzyme reaction” (THE REGENTS OF THE UNIVERSITY OF CALIFORNIA, priority 2015, dated 2022)
“Also recorded” adds a separate entry of the source.

Columns and labels:
Format in all cases: biochemical
[1] = Immobilized alkaline phosphatase reactor: continuous flow stability; conditions: amine-glutaraldehyde cross linker, 10 h, 1 mL min^−1
Experimental: FIG. 64 depicts amine-glutaraldehyde cross-linker immobilization. Glutaraldehyde solution (90 μL in 3.00 mL PBS) was added to a freshly coated sample tube. The sample tube was then capped, and inserted into a VFD. The sample tube was rotated at 8 krpm for 30 min to create the APTES-glutaraldehyde cross linker. After rotation, the sample tube was then rinsed with PBS (6×5 mL) and inverted to remove the majority of the buffer solution. The enzyme immobilization step was then carried out as described above. Following this, the sample tube was removed from the VFD and washed with PBS (5×5 mL, pH 8.0), and inverted to remove the majority of the buffer solution. The sample tube was then loaded back into the VFD before addition of NaBH3CN (18.8 mg) in sodium acetate buffer (50 mM, pH 5.0, 3.00 mL). The sample tube was then capped and rotated at 8 krpm for 30 min. […]
The p-nitrophenol phosphate substrate solution (0.01 M in 1.0 M diethanolamine) was prepared as follows: […] of diethanolamine was added to 1.0 L of H2O, then the pH of the solution was adjusted to pH 9.8 using 5 M HCl. […] The aliquot was then analyzed via absorption spectroscopy as described above. […]

[2] = Alkaline phosphatase VFD acceleration, crowding and centrifuge control (Example 4)
Experimental: The enzyme-substrate solution (alkaline phosphatase and p-nitrophenol phosphate) was subjected to centrifugation in a bench top centrifuge at the indicated rotational speeds for 10 min. A direct comparison was then made between a VFD sample and a centrifuged sample (FIG. 12).
FAsTAP™ thermosensitive alkaline phosphatase (1.0 μL, 0.11 mM) was added to 10 mL of the diethanolamine buffer to generate an enzyme stock solution (11.1 nM). This solution was made fresh every two hours and stored on ice. Each sample was prepared by combining 0.800 mL of the enzyme stock solution and 0.500 mL of alkaline phosphatase liquid substrate system (pNPP, Sigma-Aldrich, 0.435 mM); this solution (1.3 mL) was added to either an Eppendorf or VFD sample tube. The reaction was incubated at 25° C. for 10 min unless otherwise indicated. […] The sample (100 μL) was then transferred to a 96-well micro plate reader, and the absorbance measured at 402 nm (λmax). […]
To explore the ability of VFD-mediated processing to overcome steric crowding reagents, two PEG polymers with average MW of 3350 and 8000 g/mol were added to the alkaline phosphatase-substrate solutions as follows. The appropriate quantities of PEG reagent for the indicated final concentrations were dissolved in diethanolamine buffer (total volume of 10.0 mL). […] The absorbance of the solution was then measured at 402 nm (FIG. 23).

[3] = Michaelis-Menton initial rates experiments, batch vs VFD (Table 1); conditions: Batch (non-VFD)
Experimental: In determining if the observed acceleration is due to a kinetic or thermodynamic effect, the initial rates of each reaction were explored. All five enzymes were subjected typical kinetic experiments using the Michaelis-Menton model. The intrinsic values of the enzymes in a batch type and VFD system could be ascertained (Table 1).
To a 17.7 mm internal diameter VFD tube was added the substrate and enzyme in buffer at the appropriate concentration. The VFD tube was rotated about its axis at a specific rotational speed at an inclination angle of 45-degrees. After a set amount of time had elapsed, the rotation was immediately halted and the quenching reagent added. The exact same reaction was run alongside the VFD in mimicking a non-VFD process. From both the VFD processed and non-VFD processed sample an aliquot of 0.100 mL was removed and added to a 96 well plate and read at 405 nm to detect the production of p-nitrophenoxide. These measurements were carried out in triplicate and allow an accurate comparison to be drawn between VFD and non-VFD processing. For all alterations to this general protocol, assay and further experimental design, see supporting information.

[4] = Alkaline phosphatase VFD vs batch enhancement, incl. steric crowding (Example 1); conditions: VFD 10 minutes
Experimental: In a typical experiment, fast thermosensitive alkaline phosphatase (1 μL, 1 unit, Thermo-Fisher) was added to 10 mL of diethanolamine buffer (1.0 M diethanolamine buffer with 0.50 mM magnesium chloride at pH 9.8 at 25° C.) in creating an enzyme stock solution. This solution was stored on ice and not stored for more than two hours. p-nitrophenyl phosphate liquid substrate solution (500 μL, Sigma-Aldrich) was added to a 20 mm external diameter VFD tube. To this was added alkaline phosphatase enzyme solution (800 μL) and the tube was inserted into the VFD and immediately spun to the required rotational speed. The VFD tube was rotated about its axis for 10 minutes at a 45-degree tilt angle relative to the horizontal position. At the end of this time 4 M NaOH (150 μL) was added in quenching the reaction. The sample was then added to a 96-well reader plate and the absorbance read at 401 nm (being the λmax for this system with 150 μL NaOH quench). […] From a comparison of the absorption values of the VFD vs. batch an enhancement factor can be determined (FIGS. 3A-3N).
For the steric crowding studies the following method was performed. […] The sample was then added to a 96-well reader plate and the absorbance read at 401 nm (being the λmax for this system with 150 μL NaOH quench). […] From a comparison of the absorption values of the VFD vs. batch an enhancement factor can be determined (FIGS. 3A-3N).

- enhancement of VFD-processed enzyme in high concentration of PEG 8000 ([2]; PEG 8000 (6.00 mg/ml, 0.75 M)): ≈ 9 fold
- enhancement compared to a non-VFD sample, crowded solution ([4]; 6 mg/mL PEG8000 dopant, 45-degree tilt): ~12 ×
- enhancement in activity compared to a non-VFD sample ([4]; 45-degree tilt angle): ~6 ×
Substance: alkaline phosphatase
- stability of immobilized enzyme in continuous flow [1]: stable levels of substrate conversion for 10 h; also recorded: good stability over 10 h of processing
- effect of centrifugation on enzymatic activity (control) ([2]; centrifuged at 14 krpm (17530 g), no VFD): no increase in enzymatic activity
- Km [3]: 484 µM
- Vmax (Mol/sec) Batch [3]: 2.271e-08 mol/s
- kcat (sec^−1) Batch [3]: 1 s⁻¹
